Results on nine molecules are retold here after ChEMBL document CHEMBL5465560, “Selectivity Literature for EUbOPEN Chemogenomic Library” (2024).

The target in assay [1] is cAMP-dependent protein kinase catalytic subunit beta (Homo sapiens) (UniProt P22694). Nature of the assay: Selectivity interaction (Ambit KINOMEscan and KiNATiv profiling in Jurkat cells) EUB0000090b PRKACB. Format: cell-based. Particulars: at 1 µM.
Assay [2] has as its target TRAF2 and NCK-interacting protein kinase (Homo sapiens) (UniProt Q9UKE5). The assay is described as follows: Selectivity interaction (Ambit KINOMEscan and KiNATiv profiling in Jurkat cells) EUB0000090b TNIK. To be noted: at 1 µM. Format: cell-based.
The subject of assay [3] is Mast/stem cell growth factor receptor Kit (Homo sapiens), P10721 [T670I]. The assay is described as follows: (§1) Selectivity interaction (SelectScreen profiling (Invitrogen)) EUB0000607a KIT. To be noted: at 2 µM.
Assay [4] deals with Mast/stem cell growth factor receptor Kit (Homo sapiens, UniProt P10721). Described as §1. To be noted: at 2 µM.
Mast/stem cell growth factor receptor Kit, sequence (P10721 whole entry): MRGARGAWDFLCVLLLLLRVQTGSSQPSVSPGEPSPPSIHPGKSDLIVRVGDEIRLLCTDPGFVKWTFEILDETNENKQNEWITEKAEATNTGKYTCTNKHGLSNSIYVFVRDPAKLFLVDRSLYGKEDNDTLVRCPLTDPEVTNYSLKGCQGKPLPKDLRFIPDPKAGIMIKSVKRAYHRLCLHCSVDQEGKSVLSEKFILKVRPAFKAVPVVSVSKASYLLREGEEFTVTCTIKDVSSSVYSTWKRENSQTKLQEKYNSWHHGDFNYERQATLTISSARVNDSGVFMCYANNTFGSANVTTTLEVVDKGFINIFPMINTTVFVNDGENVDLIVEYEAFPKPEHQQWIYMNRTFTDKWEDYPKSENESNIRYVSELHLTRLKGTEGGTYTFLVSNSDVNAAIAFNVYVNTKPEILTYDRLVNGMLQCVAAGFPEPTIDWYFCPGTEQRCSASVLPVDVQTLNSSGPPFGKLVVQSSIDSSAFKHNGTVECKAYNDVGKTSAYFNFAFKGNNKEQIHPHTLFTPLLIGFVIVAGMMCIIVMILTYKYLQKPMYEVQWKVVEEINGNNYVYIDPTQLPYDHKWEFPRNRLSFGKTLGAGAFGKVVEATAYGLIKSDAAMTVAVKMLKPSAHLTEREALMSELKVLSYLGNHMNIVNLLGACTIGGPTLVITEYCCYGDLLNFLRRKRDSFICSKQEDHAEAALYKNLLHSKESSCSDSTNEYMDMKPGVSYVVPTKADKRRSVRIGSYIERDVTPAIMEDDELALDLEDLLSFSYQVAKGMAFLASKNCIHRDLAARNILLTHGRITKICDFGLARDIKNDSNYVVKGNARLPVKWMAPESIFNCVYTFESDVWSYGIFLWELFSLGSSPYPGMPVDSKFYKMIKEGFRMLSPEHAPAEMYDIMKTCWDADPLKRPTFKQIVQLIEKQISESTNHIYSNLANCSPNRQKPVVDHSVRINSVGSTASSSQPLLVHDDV
Assay [5] concerns the target T1, Testis-specific serine/threonine-protein kinase 1 (Homo sapiens) (UniProt Q9BXA7).
T1 sequence (whole entry): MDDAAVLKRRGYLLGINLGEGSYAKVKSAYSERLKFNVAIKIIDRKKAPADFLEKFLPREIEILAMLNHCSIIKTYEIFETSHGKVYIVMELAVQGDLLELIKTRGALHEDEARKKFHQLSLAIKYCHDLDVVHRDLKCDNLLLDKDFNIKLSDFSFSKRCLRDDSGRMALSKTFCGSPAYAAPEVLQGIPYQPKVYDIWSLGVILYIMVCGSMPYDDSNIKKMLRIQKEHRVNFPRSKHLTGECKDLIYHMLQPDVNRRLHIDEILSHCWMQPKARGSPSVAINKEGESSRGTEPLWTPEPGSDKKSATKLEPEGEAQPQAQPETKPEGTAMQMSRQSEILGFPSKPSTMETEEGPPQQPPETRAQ
Nature of the assay: Selectivity interaction (KinomeScan (DiscoverX)) EUB0000655a TSSK1A. Particulars: at 10 µM.

Assay [6] has as its target Mitogen-activated protein kinase kinase kinase 14 (Homo sapiens) (UniProt Q99558). The assay is described as follows: Selectivity interaction (KinomeScan (DiscoverX)) EUB0001079a MAP3K14. To be noted: at 1 µM.
The target of assay [7] is Casein kinase I isoform gamma-2 (Homo sapiens) (UniProt P78368). The assay is described as follows: Selectivity interaction (Kinase panel (Invitrogen)) EUB0000639a CSNK1G2. Particulars: at 200 nM.
Casein kinase I isoform gamma-2 (Homo sapiens), sequence (P78368 whole entry, looked up, canonical isoform): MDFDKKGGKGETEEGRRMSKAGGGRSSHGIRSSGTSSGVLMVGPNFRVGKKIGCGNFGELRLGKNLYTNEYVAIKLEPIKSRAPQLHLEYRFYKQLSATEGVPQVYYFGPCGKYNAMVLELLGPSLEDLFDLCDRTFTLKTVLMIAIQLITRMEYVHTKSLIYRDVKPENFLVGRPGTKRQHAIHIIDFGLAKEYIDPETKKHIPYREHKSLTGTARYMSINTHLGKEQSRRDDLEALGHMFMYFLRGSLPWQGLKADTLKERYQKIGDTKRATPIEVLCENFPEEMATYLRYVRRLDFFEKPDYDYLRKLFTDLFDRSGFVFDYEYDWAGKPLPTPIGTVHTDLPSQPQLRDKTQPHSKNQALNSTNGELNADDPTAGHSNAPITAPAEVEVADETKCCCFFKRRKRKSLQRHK
For assay [8], the target named is T2, Serine/threonine-protein kinase Nek5 (Homo sapiens) (UniProt Q6P3R8).
T2 sequence (whole entry): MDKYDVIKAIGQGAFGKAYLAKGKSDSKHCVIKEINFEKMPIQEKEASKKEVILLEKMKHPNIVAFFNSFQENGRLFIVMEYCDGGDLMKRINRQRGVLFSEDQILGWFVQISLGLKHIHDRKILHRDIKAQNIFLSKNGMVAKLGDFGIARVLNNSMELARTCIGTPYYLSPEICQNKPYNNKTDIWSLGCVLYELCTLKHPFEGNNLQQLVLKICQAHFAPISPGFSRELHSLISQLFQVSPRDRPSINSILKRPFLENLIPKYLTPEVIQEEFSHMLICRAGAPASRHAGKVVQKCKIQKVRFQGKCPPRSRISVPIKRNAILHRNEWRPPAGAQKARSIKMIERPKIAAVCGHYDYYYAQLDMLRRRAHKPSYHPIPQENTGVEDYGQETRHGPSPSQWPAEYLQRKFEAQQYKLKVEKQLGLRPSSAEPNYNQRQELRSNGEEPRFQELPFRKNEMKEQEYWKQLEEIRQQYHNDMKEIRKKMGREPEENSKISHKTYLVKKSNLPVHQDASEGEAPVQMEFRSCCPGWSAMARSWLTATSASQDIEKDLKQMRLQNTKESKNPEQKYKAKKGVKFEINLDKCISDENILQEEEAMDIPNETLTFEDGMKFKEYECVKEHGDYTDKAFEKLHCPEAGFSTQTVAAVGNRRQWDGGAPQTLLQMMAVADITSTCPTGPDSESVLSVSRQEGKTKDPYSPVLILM
The assay is described as follows: Selectivity interaction (KinomeScan (DiscoverX)) EUB0000695a NEK5. Particulars: at 100 nM.

In assay [9] the target is cAMP-dependent protein kinase catalytic subunit alpha (Homo sapiens, UniProt P17612). Nature of the assay: Selectivity interaction (KinomeScan (DiscoverX)) EUB0000092b PRKACA. To be noted: at 10 µM.
The target of assay [10] is Serine/threonine-protein kinase PAK 6 (Homo sapiens) (UniProt Q9NQU5). The assay is described as follows: Selectivity interaction (KinomeScan (DiscoverX)) EUB0000618a PAK6. To be noted: at 10 µM.
Serine/threonine-protein kinase PAK 6 (Homo sapiens), sequence (Q9NQU5 whole entry, looked up): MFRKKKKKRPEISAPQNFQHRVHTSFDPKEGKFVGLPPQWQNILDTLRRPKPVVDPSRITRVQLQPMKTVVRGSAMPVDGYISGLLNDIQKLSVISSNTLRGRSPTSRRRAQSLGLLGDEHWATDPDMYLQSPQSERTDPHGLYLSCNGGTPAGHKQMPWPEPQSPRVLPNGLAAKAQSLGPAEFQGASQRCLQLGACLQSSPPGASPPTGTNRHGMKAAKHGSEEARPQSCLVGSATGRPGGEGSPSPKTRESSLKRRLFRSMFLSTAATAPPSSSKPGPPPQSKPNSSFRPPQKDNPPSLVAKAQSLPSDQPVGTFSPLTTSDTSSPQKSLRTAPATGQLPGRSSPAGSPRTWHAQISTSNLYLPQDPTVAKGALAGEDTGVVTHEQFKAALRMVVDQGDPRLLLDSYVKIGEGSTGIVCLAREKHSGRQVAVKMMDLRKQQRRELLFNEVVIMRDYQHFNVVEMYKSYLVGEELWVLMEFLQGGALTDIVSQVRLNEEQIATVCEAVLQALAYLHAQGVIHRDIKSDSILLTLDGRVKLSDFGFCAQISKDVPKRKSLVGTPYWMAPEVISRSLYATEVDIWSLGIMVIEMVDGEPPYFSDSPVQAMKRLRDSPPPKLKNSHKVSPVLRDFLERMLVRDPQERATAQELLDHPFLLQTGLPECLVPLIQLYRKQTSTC
Assay [11] addresses T3, Phosphatidylinositol 5-phosphate 4-kinase type-2 beta (Homo sapiens) (UniProt P78356).
T3 sequence (whole entry): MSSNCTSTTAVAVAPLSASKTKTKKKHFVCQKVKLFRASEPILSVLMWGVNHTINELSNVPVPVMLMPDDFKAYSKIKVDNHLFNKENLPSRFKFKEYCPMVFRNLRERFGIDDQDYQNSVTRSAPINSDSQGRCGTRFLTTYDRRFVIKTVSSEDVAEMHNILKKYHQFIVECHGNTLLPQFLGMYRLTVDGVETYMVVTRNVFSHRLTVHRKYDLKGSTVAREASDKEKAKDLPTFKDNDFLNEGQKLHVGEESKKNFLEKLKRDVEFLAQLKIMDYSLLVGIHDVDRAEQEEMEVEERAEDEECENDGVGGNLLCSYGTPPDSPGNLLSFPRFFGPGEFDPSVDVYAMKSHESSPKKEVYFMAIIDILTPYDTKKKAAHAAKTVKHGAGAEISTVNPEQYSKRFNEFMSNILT
The assay is described as follows: Selectivity interaction (KinomeScan (DiscoverX)) EUB0000618a PIP4K2B. To be noted: at 10 µM.

For assay [12], the target named is Ribosomal protein S6 kinase alpha-5 (Homo sapiens) (UniProt O75582). The assay is described as follows: Selectivity interaction (KinomeScan (DiscoverX)) EUB0000618a RPS6KA5. To be noted: at 10 µM.
Ribosomal protein S6 kinase alpha-5 (Homo sapiens), sequence (O75582 whole entry, looked up): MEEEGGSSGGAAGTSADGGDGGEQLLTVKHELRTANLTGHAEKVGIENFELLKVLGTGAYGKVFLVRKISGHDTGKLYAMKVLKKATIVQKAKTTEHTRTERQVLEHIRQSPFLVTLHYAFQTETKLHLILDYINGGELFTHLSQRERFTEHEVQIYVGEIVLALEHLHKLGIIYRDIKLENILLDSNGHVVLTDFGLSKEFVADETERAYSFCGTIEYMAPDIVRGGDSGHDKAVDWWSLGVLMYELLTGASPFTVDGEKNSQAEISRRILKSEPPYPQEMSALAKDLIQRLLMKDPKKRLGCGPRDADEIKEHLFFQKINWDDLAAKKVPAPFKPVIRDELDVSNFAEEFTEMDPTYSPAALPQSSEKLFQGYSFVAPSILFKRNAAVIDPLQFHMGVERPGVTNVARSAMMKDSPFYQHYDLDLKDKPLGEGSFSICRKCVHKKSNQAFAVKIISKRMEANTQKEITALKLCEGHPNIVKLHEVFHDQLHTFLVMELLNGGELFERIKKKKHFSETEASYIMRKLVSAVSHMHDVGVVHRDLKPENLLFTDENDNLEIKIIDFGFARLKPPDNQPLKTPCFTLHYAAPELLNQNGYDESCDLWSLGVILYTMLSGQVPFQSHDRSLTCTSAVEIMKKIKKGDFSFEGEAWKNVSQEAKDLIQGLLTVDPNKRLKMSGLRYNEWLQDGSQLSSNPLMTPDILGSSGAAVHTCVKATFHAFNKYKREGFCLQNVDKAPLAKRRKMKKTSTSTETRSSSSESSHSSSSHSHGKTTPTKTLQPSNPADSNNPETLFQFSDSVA
For assay [13], the target named is T4, Activin receptor type-1B (Homo sapiens) (UniProt P36896).
T4 sequence (whole entry): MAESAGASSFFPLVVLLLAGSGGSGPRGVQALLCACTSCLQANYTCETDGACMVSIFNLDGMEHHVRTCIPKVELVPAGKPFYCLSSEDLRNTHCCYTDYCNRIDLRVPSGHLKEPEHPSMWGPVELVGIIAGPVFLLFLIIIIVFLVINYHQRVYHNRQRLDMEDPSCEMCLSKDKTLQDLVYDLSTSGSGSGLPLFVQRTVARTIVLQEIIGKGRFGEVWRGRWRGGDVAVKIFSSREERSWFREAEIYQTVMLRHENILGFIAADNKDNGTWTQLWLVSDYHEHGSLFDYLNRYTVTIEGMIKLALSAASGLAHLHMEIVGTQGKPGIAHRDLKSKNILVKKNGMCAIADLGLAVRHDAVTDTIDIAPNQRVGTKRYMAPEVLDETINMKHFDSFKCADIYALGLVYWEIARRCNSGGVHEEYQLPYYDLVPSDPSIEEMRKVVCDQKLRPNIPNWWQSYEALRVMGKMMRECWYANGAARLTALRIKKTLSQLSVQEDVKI
The assay is described as follows: Selectivity interaction (Upstate Kinase Profiler service (Millipore)) EUB0000056c ACVR1B. To be noted: at 1 µM.

SMILES strings stand for the structures.

Mitogen-activated protein kinase kinase kinase 14 (Homo sapiens), sequence (Q99558 whole entry, looked up, canonical isoform): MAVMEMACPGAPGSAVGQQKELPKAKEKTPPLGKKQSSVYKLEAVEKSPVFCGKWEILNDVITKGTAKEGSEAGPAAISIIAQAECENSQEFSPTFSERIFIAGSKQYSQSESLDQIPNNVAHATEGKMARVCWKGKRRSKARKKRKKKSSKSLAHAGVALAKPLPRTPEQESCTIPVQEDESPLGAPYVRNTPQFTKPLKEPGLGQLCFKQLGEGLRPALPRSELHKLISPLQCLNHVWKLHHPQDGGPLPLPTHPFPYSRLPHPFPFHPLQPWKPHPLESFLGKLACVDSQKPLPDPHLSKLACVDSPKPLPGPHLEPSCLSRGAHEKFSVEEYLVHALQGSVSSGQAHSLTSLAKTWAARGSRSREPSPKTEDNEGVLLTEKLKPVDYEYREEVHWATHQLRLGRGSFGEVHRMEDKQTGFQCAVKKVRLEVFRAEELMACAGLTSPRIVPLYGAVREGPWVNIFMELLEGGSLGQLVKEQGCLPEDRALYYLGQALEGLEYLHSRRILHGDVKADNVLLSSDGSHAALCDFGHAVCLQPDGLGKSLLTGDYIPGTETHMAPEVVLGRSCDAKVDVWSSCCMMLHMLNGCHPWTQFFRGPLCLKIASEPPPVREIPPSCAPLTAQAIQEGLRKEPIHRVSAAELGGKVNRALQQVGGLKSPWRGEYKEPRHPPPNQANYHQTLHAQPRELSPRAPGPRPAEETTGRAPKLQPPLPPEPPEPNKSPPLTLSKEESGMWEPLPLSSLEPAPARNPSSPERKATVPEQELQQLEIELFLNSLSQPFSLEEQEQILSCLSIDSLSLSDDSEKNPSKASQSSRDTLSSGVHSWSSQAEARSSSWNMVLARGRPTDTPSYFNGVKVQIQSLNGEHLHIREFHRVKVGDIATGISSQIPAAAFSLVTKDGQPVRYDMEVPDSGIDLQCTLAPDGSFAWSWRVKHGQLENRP
Mast/stem cell growth factor receptor Kit (Homo sapiens), P10721 [T670I], sequence (P10721 whole entry T670I): as the sequence (P10721 whole entry) above, with T670I counted along it

In the case of `CN(C)C/C=C/C(=O)Nc1ccc(C(=O)N2CCCC(Nc3ncc(Cl)c(-c4c[nH]c5ccccc45)n3)C2)cc1` (stereo not drawn), the % of control in [1] was determined as 90%; in [2], 91%. Consider `CNC(=O)Nc1ccc(-c2nc(N3CC4CCC(C3)O4)c3cnn(C4CCC5(CC4)OCCO5)c3n2)cc1`, for which the results for the % of inhibition in [3] and in assay [4] were 7% and 10%, respectively. `CN(C)CCOc1ccc(-c2nc(-c3ccncc3)c(-c3ccc4c(c3)CC/C4=N\O)[nH]2)cc1` had a % of control in [5] of 86%. The molecule `Nc1cnc(N2CCc3cc(S(=O)(=O)Nc4c(F)cc(Cl)cc4F)cc(N4CCCC4=O)c32)nc1` [TP-020n] displayed a % of control in assay [6] of 75%.

The molecule `CC[C@@H]1[C@H](F)C(=O)N[C@@H]1COc1nccc2cc(C(N)=O)c(OC)cc12` [ZIMLOVISERTIB] came in with a % of inhibition in assay [7] of 64.8%.

`Cc1cc(F)c(C(=O)Nc2cccc(-c3nncn3C(C)C)n2)cc1-n1cnc(C2CC2)c1` came in with a % of control in assay [8] of 91%. As for `CCC(=O)N1CCN(c2ccc(-n3c(=O)ccc4cnc5ccc(-c6cnc7ccccc7c6)cc5c43)cc2C(F)(F)F)CC1`, the % of control in assay [9] was found to be 79%. Take `O[C@H]1CC[C@H](Nc2ncc3nc(Nc4c(F)cc(F)cc4F)n([C@H]4CCOC4)c3n2)CC1`: the % of control in assay [10] was 100%; in assay [11], 98%; in assay [12], 68%. Turning to `Cc1ccc(-c2ccc3c(ccc4sc5c(c43)NC[C@@H](C)NC5=O)n2)cn1`, the % of inhibition in assay [13] was found to be 9%.
